Data as given in patent publication US20190015379A1, “USE OF DIANHYDROGALACTITOL AND ANALOGS AND DERIVATIVES THEREOF, TOGETHER WITH RADIATION, TO TREAT NON-SMALL-CELL CARCINOMA OF THE LUNG AND GLIOBLASTOMA MULTIFORME AND SUPPRESS PROLIFERATION OF CANCER STEM CELLS” (DelMar Pharmaceuticals, Inc., priority 2014, published 2019).

How the values were obtained:
[1] = tested on: A549 human lung adenocarcinoma xenograft tumors; test: A549 NSCLC xenograft tumor growth in Rag2 mice; format: in vivo, female Rag2 mice
Description: The purpose of the study reported in this Example is to evaluate the activity of dianhydrogalactitol in in vivo models of drug-resistant NSCLC in comparison to other drugs, including cisplatin. Rag2 mice bearing subcutaneous human lung adenocarcinoma xenograft tumors of either TKI-resistant (H1975) or TKI-sensitive (A549) origin were treated.
Two human NSCLC cell lines, A549 (TKI-sensitive) and H1975 (TKI-resistant), were used as xenograft tumor models in female Rag2 mice. The mice were 6 to 8 weeks of age and weighed 18-23 grams. 10 mice were used per group.
Cisplatin was used in normal saline at a dose of 5 mg/kg. Administration was intravenous.
Dianhydrogalactitol was used in 0.9% sodium chloride for injection at 1.5 mg/kg to 6 mg/kg. Administration was intraperitoneal.
Treatment was initiated at a tumor volume of 100 mm^3 to 150 mm^3.
On day 0, tumor cells were implanted subcutaneously into mice in a volume of 50 μL in Matrigel™ using a 28-gauge needle; injection of the tumor cells was in the back of the mice. Mice were randomly assigned to groups based on tumor volume.
(§1) Tumor growth was monitored by measuring tumor dimensions with calipers beginning on the first day of treatment. Tumor length and width measurements were obtained each Monday, Wednesday, and Friday. Tumor volumes were calculated according to the equation L×W^2/2 with the length (in mm) being defined as the longer axis of the tumor. Animals were weighed at the time of tumor measurement. Tumors were allowed to grow to a maximum of 800 mm^3 before termination.

[2] = Tolerability in A549 tumor-bearing Rag2 mice (body weight, CBC, clinical observations)
Description: as §1
All animals had blood collected by cardiac puncture at termination for CBC (complete blood count) with differentiation.
In particular, signs of ill-health were based on body weight loss, change in appetite, and behavioral signs such as altered gait, lethargy, and gross manifestations of stress. If signs of severe toxicity or tumor-related illness were seen, the animals were terminated by isoflurane overdose followed by CO2 asphyxiation, and a necropsy was performed to assess other signs of toxicity. The following organs were examined: liver, gall bladder, spleen, lung, kidney, heart, intestine, lymph nodes, and bladder. Any unusual findings were noted.

[3] = Mischler et al. 1979; cited from earlier work
GBM = conditions: GBM; Eagan (1979), Stupp (2005); cited from earlier work
[4] = GBM chemotherapy, historical data; cited from earlier work
[5] = cisplatin 5 mg/kg Q7D x 3 i.v. (group 2)

N.N.[Cl][Pt][Cl] [cisplatin, reference compound]
day on which a mean tumor volume of 400 mm^3 was reached [1, 5]: 66 days
number of animals remaining on study on day 70 [1, 5]: 6/10
tumor doubling time [1, 5]: 17
day on which a mean tumor volume of 200 mm^3 was observed ([1]; cisplatin 5 mg/kg Q7D x 3 i.v. (group 2), days post-inoculation): 49 days
tumor growth delay compared to untreated controls ([1]; cisplatin 5 mg/kg i.v. (positive control)): 4 days
body weight loss ([2]; cisplatin 5 mg/kg (group 2)): body weight loss was observed
tolerability of the dosage ([2]; cisplatin 5 mg/kg, 1 mouse unable to receive the last dose): may also be near the MTD

O[C@H]([C@H](O)[C@@H](O)CBr)[C@H](O)CBr [dibromodulcitol]
absorption by the oral route [3]: rapid and fairly complete

O=NN(CCCl)C(=O)NCCCl [Carmustine, carmustine, reference compound]
Median O.S. (XRT + Chemo) (GBM): 40-50 weeks

Cn1nnc2c(C(N)=O)ncn2c1=O [temozolomide, reference compound]
DLT [4]: Hematologic
Nadir [4]: 21 to 28 days
Recovery [4]: Within 14 days
